Experimental data reported in PubChem BioAssay (NCI).
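Exposure lasted 48 hours, with cells grown in 96-well plates and compounds tested at five concentrations. GI50 = concentration required for 50% inhibition of growth. TGI: total growth inhibition.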

Assays:
Assay in all cases: NCI-60 cell line screen, 48 h
ACHN renal = system: ACHN renal
OVCAR-4 ovarian = system: OVCAR-4 ovarian
SN12C renal = system: SN12C renal
NCI-H226 lung = system: NCI-H226 lung
TK-10 renal = system: TK-10 renal
SNB-19 CNS = system: SNB-19 CNS
SR leukemia = system: SR leukemia
RPMI-8226 leukemia = system: RPMI-8226 leukemia
SK-MEL-5 melanoma = system: SK-MEL-5 melanoma
SW-620 colon = system: SW-620 colon

Structure (SMILES) | GI50 (ACHN renal) | TGI (ACHN renal) | GI50 (OVCAR-4 ovarian) | TGI (OVCAR-4 ovarian) | GI50 (SN12C renal) | TGI (SN12C renal) | GI50 (NCI-H226 lung) | TGI (NCI-H226 lung) | GI50 (TK-10 renal) | TGI (TK-10 renal) | GI50 (SNB-19 CNS) | TGI (SNB-19 CNS) | GI50 (SR leukemia) | TGI (SR leukemia) | GI50 (RPMI-8226 leukemia) | TGI (RPMI-8226 leukemia) | GI50 (SK-MEL-5 melanoma) | TGI (SK-MEL-5 melanoma) | GI50 (SW-620 colon) | TGI (SW-620 colon)
COc1cccc(/C=N\Nc2ccc([N+](=O)[O-])cn2)c1O | 2.33 µM | 7.61 µM | 4.28 µM | > 100 µM | 4 µM | 62 µM | 3.72 µM | 26.2 µM | 7.31 µM | > 100 µM | 3.13 µM | 27.8 µM | 3.03 µM | > 100 µM | 3.21 µM | 27.8 µM | 1.76 µM | 5.92 µM | 3.94 µM | > 100 µM
O=[N+]([O-])c1ccccc1N=Nc1c(O)[nH]c2ccccc12 |  | 23.7 µM |  | > 61.1 µM |  | > 61.6 µM |  | > 59.1 µM |  | > 100 µM |  | > 100 µM |  | > 100 µM |  | > 100 µM |  | > 86.2 µM |  | > 100 µM
COc1ccc(O)c(C(=O)c2ccc(C(=O)O[C@@H]3CCCNC[C@H]3NC(=O)c3ccncc3)cc2)c1F | 1.49 µM | > 25 µM | 7.9 µM | > 25 µM | 1.34 µM | > 25 µM | 1.68 µM | > 25 µM | 3.51 µM | > 25 µM | 1.9 µM | > 25 µM | 0.146 µM | > 5.21 µM | 1.25 µM | > 25 µM | 0.541 µM | 3.15 µM |  | > 25 µM
O=S1(=O)CCN(Cc2ccccn2)CC1 |  | > 100 µM |  | > 100 µM |  | > 100 µM |  | > 100 µM |  | > 100 µM |  | > 100 µM |  | > 100 µM |  | > 100 µM |  | > 100 µM |  | > 100 µM
CCOC(=O)CC1(O)C=CC(=O)C=C1 | 2.43 µg/mL | 4.6 µg/mL | 2.21 µg/mL | 4.44 µg/mL | 2.46 µg/mL | 4.6 µg/mL | 4.79 µg/mL | 13 µg/mL | 2.12 µg/mL | 6.04 µg/mL | 1.53 µg/mL | 5.05 µg/mL | 0.348 µg/mL | 1.18 µg/mL | 1.24 µg/mL | 28.4 µg/mL | 1.96 µg/mL | 3.86 µg/mL | 1.68 µg/mL | 4.39 µg/mL
O=C(O)C1C2CC3C(OC(=O)C31)C2Br (configuration not stated) |  | > 100 µM |  | > 100 µM |  | > 100 µM |  | > 100 µM |  | > 100 µM |  | > 100 µM |  | 26.2 µM |  | > 100 µM |  | > 100 µM |  | > 100 µM
O=C(Nc1ccc(Br)cc1)Nc1n[nH]c2ccccc12 | 23.3 µM | > 100 µM | 56.7 µM | > 100 µM | > 100 µM | > 100 µM | > 91 µM | > 100 µM |  | > 26.7 µM | > 100 µM | > 100 µM | 4.78 µM | > 100 µM |  | > 100 µM | > 88.7 µM | > 100 µM | > 100 µM | > 100 µM
CCOC(=O)/N=C(\N)SCc1ccccc1 |  | > 100 µM |  | > 100 µM |  | > 100 µM |  | > 100 µM |  | > 100 µM |  | > 100 µM |  | > 100 µM |  | > 100 µM |  | > 100 µM |  | > 100 µM
COc1cc(-c2[nH]ccc2Cl)oc1C1=C2N=C3C=C2C(C(C)C)C1CCCCCCCC3 (configuration not stated) |  | 3.12 µM |  | 2.48 µM |  | 3 µM |  | 3.51 µM |  | 5.19 µM |  | 5.92 µM |  | 0.739 µM |  | 5.34 µM |  | 0.813 µM |  | 1.5 µM
CS(=O)(=O)CCNCc1ccc(-c2ccc3ncnc(Nc4ccc(OCc5cccc(C(F)(F)F)c5)cc4)c3c2)o1 | 7.38 µM | > 25 µM | 8.68 µM | > 25 µM | 7.81 µM | > 19.1 µM | > 16.3 µM | > 25 µM | 3.17 µM | 11.1 µM | 11.3 µM | > 25 µM | 4.49 µM | 16.7 µM | 5.7 µM | 16.5 µM | 6.05 µM | > 13.5 µM | 5.2 µM | 10.1 µM
O=Cc1ccc(-c2ccc(-c3ccc(C=O)s3)o2)s1 |  | > 100 µM |  | > 100 µM |  | > 100 µM |  | 2.46 µM |  | 7.33 µM |  | > 100 µM |  | > 100 µM |  | > 100 µM |  | > 100 µM |  | > 100 µM
